Reference: BigSolDB 2.1

O=C1CCC(c2ccccc2)=NN1
solubility (mole fraction)
Conditions | 293.15 K | 298.15 K | 303.15 K | 308.15 K | 313.15 K
in transcutol | 0.425 | 0.453 | 0.478 | 0.507 | 0.527
in water | 7.45e-07 | 9.1e-07 | 1.09e-06 | 1.34e-06 | 1.64e-06
